Results reported in patent US11021457B2, “Class of isoindolone-imide ring-1,3-dione-2-ene compounds, composition and use thereof” (WIGEN BIOMEDICINE TECHNOLOGY (SHANGHAI) CO., LTD., priority 2017, dated 2021).

Experiments:
Assay type in all cases: cell-based
Conditions in all cases: compound concentration 50 μM, 72 hours
SU-DHL6 = assay: Inhibition of tumor cell proliferation, CellTiter-Glo, SU-DHL6
Summary of the method: (§1)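 Compound tested at 50 μM for 72 h, read by CellTiter-Glo. Survival rate = (treated−blank)/(control−blank) RLU ×100, binned as +++ ≤30%, ++ >30-≤60%, + 60-<90%. Seeding 2000-10000 cells/well depending on growth rate.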

RPMI-8226 = assay: Inhibition of tumor cell proliferation, CellTiter-Glo, RPMI-8226
Summary of the method: as §1

K562 = assay: Inhibition of tumor cell proliferation, CellTiter-Glo, K562
Summary of the method: as §1

A549 = assay: Inhibition of tumor cell proliferation, CellTiter-Glo, A549
Summary of the method: as §1

MDA-MB-453 = assay: Inhibition of tumor cell proliferation, CellTiter-Glo, MDA-MB-453
Summary of the method: as §1

BxPC-3 = assay: Inhibition of tumor cell proliferation, CellTiter-Glo, BxPC-3
Summary of the method: as §1

Structure (SMILES)	Inhibitory activity against proliferation (cell survival rate) SU-DHL6 (SU-DHL6)	Inhibitory activity against proliferation (cell survival rate) RPMI-8226 (RPMI-8226)	Inhibitory activity against proliferation (cell survival rate) K562 (K562)	Inhibitory activity against proliferation (cell survival rate) A549 (A549)	Inhibitory activity against proliferation (cell survival rate) MDA-MB-453 (MDA-MB-453)	Inhibitory activity against proliferation (cell survival rate) BxPC-3 (BxPC-3)	cell survival rate (% of control) at 50 µM (SU-DHL6; Homo sapiens, SU-DHL-6, read-out: Inhibitory activity against proliferation (cell survival rate) SU-DHL6) [%]	cell survival rate (% of control) at 50 µM (RPMI-8226; Homo sapiens, RPMI-8226, read-out: Inhibitory activity against proliferation (cell survival rate) RPMI-8226) [%]	cell survival rate (%) at 50 µM (K562; Homo sapiens, K562, read-out: Inhibitory activity against proliferation (cell survival rate) K562) [%]	cell survival rate (% of control) at 50 µM (A549; Homo sapiens, A549, read-out: Inhibitory activity against proliferation (cell survival rate) A549) [%]	cell survival rate (%) at 50 µM (MDA-MB-453; Homo sapiens, MDA-MB-453, read-out: Inhibitory activity against proliferation (cell survival rate) MDA-MB-453) [%]	cell survival rate (%) at 50 µM (BxPC-3; Homo sapiens, BXPC-3, read-out: Inhibitory activity against proliferation (cell survival rate) BxPC-3) [%]
O=C1CCC(N2Cc3c(NC(=O)CCC(=O)N4CCN(CCNC=C5C(=O)CC(c6ccccc6)CC5=O)CC4)cccc3C2=O)C(=O)N1 (stereo not drawn) [Compound 91]	++ (30<survival rate (%)≤60)	++ (30<survival rate (%)≤60)	++ (30<survival rate (%)≤60)	++ (30<survival rate (%)≤60)	++ (30<survival rate (%)≤60)	+ (60≤survival rate (%)<90)	–	–	–	–	–	–
O=C1CCC(N2Cc3c(NC(=O)c4ccc(CN5CCN(CCNC=C6C(=O)CC(c7ccccc7)CC6=O)CC5)cc4)cccc3C2=O)C(=O)N1 (stereo not drawn) [Compound 92]	+++ (survival rate (%)≤30)	+++ (survival rate (%)≤30)	+ (60≤survival rate (%)<90)	+ (60≤survival rate (%)<90)	++ (30<survival rate (%)≤60)	+ (60≤survival rate (%)<90)	–	–	–	–	–	–
O=C(/C=C\CN1CCN(CCNC=C2C(=O)CC(c3ccccc3)CC2=O)CC1)Nc1cccc2c1CN(C1CCC(=O)NC1=O)C2=O (stereo not drawn) [Compound 93]	+++ (survival rate (%)≤30)	+++ (survival rate (%)≤30)	++ (30<survival rate (%)≤60)	++ (30<survival rate (%)≤60)	++ (30<survival rate (%)≤60)	+ (60≤survival rate (%)<90)	–	–	–	–	–	–
O=C1CCC(N2C(=O)c3cccc(NC(=O)c4ccc(CN5CCN(CCNC=C6C(=O)CC(c7ccccc7)CC6=O)CC5)cc4)c3C2=O)C(=O)N1 (stereo not drawn) [Compound 94]	+++ (survival rate (%)≤30)	+++ (survival rate (%)≤30)	+++ (survival rate (%)≤30)	+++ (survival rate (%)≤30)	+++ (survival rate (%)≤30)	+ (60≤survival rate (%)<90)	–	–	–	–	–	–
Nc1cccc2c1CN(C1CCC(=O)N(C(=O)N3CCN(CCNC=C4C(=O)CC(c5ccccc5)CC4=O)CC3)C1=O)C2=O (stereo not drawn) [Compound 100]	++ (30<survival rate (%)≤60)	+ (60≤survival rate (%)<90)	+++ (survival rate (%)≤30)	+++ (survival rate (%)≤30)	++ (30<survival rate (%)≤60)	++ (30<survival rate (%)≤60)	–	–	–	–	–	–
O=C1CC(c2ccccc2)CC(=O)C1=CNCCN1CCC(C(=O)N2C(=O)CCC(N3C(=O)c4ccccc4C3=O)C2=O)CC1 (stereo not drawn) [Compound 102]	++ (30<survival rate (%)≤60)	+++ (survival rate (%)≤30)	+++ (survival rate (%)≤30)	+++ (survival rate (%)≤30)	+++ (survival rate (%)≤30)	+ (60≤survival rate (%)<90)	–	–	–	–	–	–
O=C1CC(c2ccccc2)CC(=O)C1=CNCCN1CCN(CCOC(=O)N2C(=O)CCC(N3C(=O)c4ccccc4C3=O)C2=O)CC1 (stereo not drawn) [Compound 103]	+++ (survival rate (%)≤30)	+ (60≤survival rate (%)<90)	+ (60≤survival rate (%)<90)	+++ (survival rate (%)≤30)	+++ (survival rate (%)≤30)	+ (60≤survival rate (%)<90)	–	–	–	–	–	–
O=C1CCC(N2C(=O)c3cccc(OC(=O)OCCOCCN4CCN(CCNC=C5C(=O)CC(c6ccccc6)CC5=O)CC4)c3C2=O)C(=O)N1 (stereo not drawn) [Compound 104]	+++ (survival rate (%)≤30)	+++ (survival rate (%)≤30)	+++ (survival rate (%)≤30)	+++ (survival rate (%)≤30)	+++ (survival rate (%)≤30)	++ (30<survival rate (%)≤60)	–	–	–	–	–	–
O=C1CCC(N2C(=O)c3cccc(OCC(=O)N4CCN(CCNC=C5C(=O)CC(c6ccccc6)CC5=O)CC4)c3C2=O)C(=O)N1 (stereo not drawn) [Compound 105]	+ (60≤survival rate (%)<90)	+ (60≤survival rate (%)<90)	+ (60≤survival rate (%)<90)	+++ (survival rate (%)≤30)	++ (30<survival rate (%)≤60)	++ (30<survival rate (%)≤60)	–	–	–	–	–	–
O=C1CCC(N2C(=O)c3cccc(OCCN4CCN(CCNC=C5C(=O)CC(c6ccccc6)CC5=O)CC4)c3C2=O)C(=O)N1 (stereo not drawn) [Compound 106]	+ (60≤survival rate (%)<90)	+ (60≤survival rate (%)<90)	+ (60≤survival rate (%)<90)	+++ (survival rate (%)≤30)	++ (30<survival rate (%)≤60)	++ (30<survival rate (%)≤60)	–	–	–	–	–	–
O=C1CCC(N2Cc3c(NCCN4CCN(CCNC=C5C(=O)CC(c6ccccc6)CC5=O)CC4)cccc3C2=O)C(=O)N1 (stereo not drawn) [Compound 107]	+ (60≤survival rate (%)<90)	+++ (survival rate (%)≤30)	+++ (survival rate (%)≤30)	+++ (survival rate (%)≤30)	++ (30<survival rate (%)≤60)	+ (60≤survival rate (%)<90)	–	–	–	–	–	–
O=C1CCC(N2C(=O)c3cccc(NCCN4CCN(CCNC=C5C(=O)CC(c6ccccc6)CC5=O)CC4)c3C2=O)C(=O)N1 (stereo not drawn) [Compound 109]	+ (60≤survival rate (%)<90)	+++ (survival rate (%)≤30)	++ (30<survival rate (%)≤60)	++ (30<survival rate (%)≤60)	+ (60≤survival rate (%)<90)	++ (30<survival rate (%)≤60)	–	–	–	–	–	–
COCCOCCOc1ccccc1C1CC(=O)C(=CNc2cccc3c2CN(C2CCC(=O)NC2=O)C3=O)C(=O)C1 (stereo not drawn) [Compound 110]	+ (60≤survival rate (%)<90)	++ (30<survival rate (%)≤60)	++ (30<survival rate (%)≤60)	++ (30<survival rate (%)≤60)	+ (60≤survival rate (%)<90)	++ (30<survival rate (%)≤60)	–	–	–	–	–	–
O=C1CCC(N2Cc3c(NC=C4C(=O)CC(c5nccs5)CC4=O)cccc3C2=O)C(=O)N1 (stereo not drawn) [Compound 111]	–	–	–	–	–	–	≤ 30	≤ 30	≤ 30	60 to 90	≤ 30	60 to 90
